# Measured values as given in patent publication US12139480B2, “5-thiazolecarboxamide kinase inhibitor and uses thereof” (iOmx Therapeutics AG, priority 2018, dated 2024).
# Read-outs that look alike come from different tables or passages of the source.
# Key:
# [1] = molecular target: T1, EGF-R (Homo sapiens, UniProt P00533); assay: single-point (1 uM) inhibition assay (ProQinase Kinase Profiler); assay type: biochemical; details: 1 uM compound, read-out: % residual activity class (FIG. 3)
# T1 construct: purchased ProQinase
# [2] = tested on: RAF1; assay: as above; assay type: biochemical; details: 1 uM compound
# [3] = molecular target: T2, LCK (Homo sapiens, UniProt P06239); assay: as above; assay type: biochemical; details: 1 uM compound, read-out: % residual activity class (FIG. 3)
# T2 construct: purchased ProQinase
# [4] = molecular target: T3, EPHA1 (Homo sapiens, UniProt P21709); assay: as above; assay type: biochemical
# T3 construct: purchased ProQinase
# T3 sequence (P21709 26-976): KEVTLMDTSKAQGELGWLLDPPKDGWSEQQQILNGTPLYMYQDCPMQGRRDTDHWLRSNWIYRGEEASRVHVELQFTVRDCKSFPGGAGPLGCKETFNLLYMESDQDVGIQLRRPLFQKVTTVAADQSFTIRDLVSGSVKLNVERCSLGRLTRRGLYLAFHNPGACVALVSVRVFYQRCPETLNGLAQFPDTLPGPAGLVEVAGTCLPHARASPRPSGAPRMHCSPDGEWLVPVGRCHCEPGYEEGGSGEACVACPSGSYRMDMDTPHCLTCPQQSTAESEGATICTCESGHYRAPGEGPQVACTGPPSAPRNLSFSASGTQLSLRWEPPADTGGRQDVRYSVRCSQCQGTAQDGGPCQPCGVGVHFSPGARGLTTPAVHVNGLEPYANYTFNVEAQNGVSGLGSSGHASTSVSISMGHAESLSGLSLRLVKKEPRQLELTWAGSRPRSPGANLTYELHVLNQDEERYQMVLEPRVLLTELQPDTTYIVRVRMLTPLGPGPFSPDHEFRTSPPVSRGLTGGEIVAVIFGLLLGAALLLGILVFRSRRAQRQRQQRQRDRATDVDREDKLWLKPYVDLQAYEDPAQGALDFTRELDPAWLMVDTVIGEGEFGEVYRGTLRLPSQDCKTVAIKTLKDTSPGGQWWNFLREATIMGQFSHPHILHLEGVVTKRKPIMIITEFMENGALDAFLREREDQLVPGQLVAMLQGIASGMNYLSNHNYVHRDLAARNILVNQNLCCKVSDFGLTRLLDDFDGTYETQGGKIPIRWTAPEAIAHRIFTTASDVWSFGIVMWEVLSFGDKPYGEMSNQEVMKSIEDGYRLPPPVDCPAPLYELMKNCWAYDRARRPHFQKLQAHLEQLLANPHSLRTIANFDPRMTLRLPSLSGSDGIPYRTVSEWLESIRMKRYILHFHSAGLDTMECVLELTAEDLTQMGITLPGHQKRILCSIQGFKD
# [5] = molecular target: T4, EPHA2 (Homo sapiens, UniProt P29317); assay: as above; assay type: biochemical
# T4 construct: purchased ProQinase
# [6] = molecular target: T5, B-RAF (Homo sapiens, UniProt P15056); assay: as above; assay type: biochemical
# T5 construct: purchased ProQinase
# T5 sequence (P15056 whole entry): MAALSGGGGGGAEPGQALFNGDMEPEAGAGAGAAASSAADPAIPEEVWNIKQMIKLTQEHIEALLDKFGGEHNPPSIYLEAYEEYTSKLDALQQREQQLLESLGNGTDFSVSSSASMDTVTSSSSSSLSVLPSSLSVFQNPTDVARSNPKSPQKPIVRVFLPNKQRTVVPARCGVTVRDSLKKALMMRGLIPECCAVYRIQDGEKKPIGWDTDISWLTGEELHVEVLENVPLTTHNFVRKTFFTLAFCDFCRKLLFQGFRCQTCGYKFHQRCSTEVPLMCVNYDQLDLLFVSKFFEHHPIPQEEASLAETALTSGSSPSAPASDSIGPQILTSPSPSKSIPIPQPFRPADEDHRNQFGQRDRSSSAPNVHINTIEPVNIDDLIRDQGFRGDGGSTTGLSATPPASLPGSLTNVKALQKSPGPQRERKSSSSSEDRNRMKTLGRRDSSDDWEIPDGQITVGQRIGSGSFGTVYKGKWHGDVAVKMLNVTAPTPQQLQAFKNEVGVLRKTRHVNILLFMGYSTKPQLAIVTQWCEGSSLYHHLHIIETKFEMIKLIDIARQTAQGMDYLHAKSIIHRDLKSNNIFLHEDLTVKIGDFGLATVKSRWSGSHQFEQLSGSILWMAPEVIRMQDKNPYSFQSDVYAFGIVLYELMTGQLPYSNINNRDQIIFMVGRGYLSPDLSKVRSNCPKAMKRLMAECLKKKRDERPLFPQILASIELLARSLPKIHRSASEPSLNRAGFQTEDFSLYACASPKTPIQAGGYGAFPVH
# [7] = molecular target: T6, EPHB3 (Homo sapiens, UniProt P54753); assay: as above; assay type: biochemical
# T6 construct: purchased ProQinase
# [8] = molecular target: T7, BMX (Homo sapiens, UniProt P51813); assay: as above; assay type: biochemical; details: 1 uM compound, read-out: % residual activity class (FIG. 3)
# T7 construct: purchased ProQinase
# T7 sequence (P51813 whole entry): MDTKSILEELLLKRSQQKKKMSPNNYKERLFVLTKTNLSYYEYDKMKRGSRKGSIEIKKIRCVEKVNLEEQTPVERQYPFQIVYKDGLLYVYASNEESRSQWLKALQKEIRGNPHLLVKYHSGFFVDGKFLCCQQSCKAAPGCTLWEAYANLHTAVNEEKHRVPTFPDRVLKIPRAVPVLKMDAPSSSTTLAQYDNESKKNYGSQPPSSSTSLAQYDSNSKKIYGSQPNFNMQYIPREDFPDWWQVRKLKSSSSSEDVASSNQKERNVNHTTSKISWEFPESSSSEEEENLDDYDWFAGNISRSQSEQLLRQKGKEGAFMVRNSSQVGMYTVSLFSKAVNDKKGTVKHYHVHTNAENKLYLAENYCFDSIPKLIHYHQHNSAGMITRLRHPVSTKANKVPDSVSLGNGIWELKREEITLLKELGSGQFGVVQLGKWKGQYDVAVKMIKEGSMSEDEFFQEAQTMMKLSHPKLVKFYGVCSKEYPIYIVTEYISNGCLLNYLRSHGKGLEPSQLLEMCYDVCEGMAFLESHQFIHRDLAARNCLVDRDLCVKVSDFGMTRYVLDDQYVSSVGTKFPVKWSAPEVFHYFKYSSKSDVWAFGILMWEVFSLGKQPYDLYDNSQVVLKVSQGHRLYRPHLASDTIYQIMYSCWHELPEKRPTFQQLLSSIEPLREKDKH
# [9] = human liver microsomal stability; assay type: in vitro ADME
# [10] = molecular target: T8, EPHA4 (Homo sapiens, UniProt P54764); assay: single-point (1 uM) inhibition assay (ProQinase Kinase Profiler); assay type: biochemical
# T8 construct: purchased ProQinase
# [11] = molecular target: T9, ERBB4 (Homo sapiens, UniProt Q15303); assay: as above; assay type: biochemical; details: 1 uM compound, read-out: % residual activity class (FIG. 3)
# T9 construct: purchased ProQinase
# [12] = molecular target: T10, BTK (Homo sapiens, UniProt Q06187); assay: as above; assay type: biochemical; details: 1 uM compound, read-out: % residual activity class (FIG. 3)
# T10 construct: purchased ProQinase
# [13] = molecular target: T11, FLT3 (Homo sapiens, UniProt P36888); assay: as above; assay type: biochemical; details: read-out: % residual activity class (FIG. 3)
# T11 construct: purchased ProQinase
# [14] = molecular target: T12, ACV-R2A (Homo sapiens, UniProt P27037); assay: as above; assay type: biochemical; details: 1 uM compound, read-out: % residual activity class (FIG. 3)
# T12 construct: purchased ProQinase
# [15] = molecular target: T13, ABL1 (Homo sapiens, UniProt P00519); assay: biochemical; details: 1 uM compound, read-out: % residual activity class (FIG. 3)
# T13 construct: purchased ProQinase
# [16] = molecular target: T14, EPHB4 (Homo sapiens, UniProt P54760); assay: biochemical
# T14 construct: purchased ProQinase
# T14 sequence (P54760 16-987): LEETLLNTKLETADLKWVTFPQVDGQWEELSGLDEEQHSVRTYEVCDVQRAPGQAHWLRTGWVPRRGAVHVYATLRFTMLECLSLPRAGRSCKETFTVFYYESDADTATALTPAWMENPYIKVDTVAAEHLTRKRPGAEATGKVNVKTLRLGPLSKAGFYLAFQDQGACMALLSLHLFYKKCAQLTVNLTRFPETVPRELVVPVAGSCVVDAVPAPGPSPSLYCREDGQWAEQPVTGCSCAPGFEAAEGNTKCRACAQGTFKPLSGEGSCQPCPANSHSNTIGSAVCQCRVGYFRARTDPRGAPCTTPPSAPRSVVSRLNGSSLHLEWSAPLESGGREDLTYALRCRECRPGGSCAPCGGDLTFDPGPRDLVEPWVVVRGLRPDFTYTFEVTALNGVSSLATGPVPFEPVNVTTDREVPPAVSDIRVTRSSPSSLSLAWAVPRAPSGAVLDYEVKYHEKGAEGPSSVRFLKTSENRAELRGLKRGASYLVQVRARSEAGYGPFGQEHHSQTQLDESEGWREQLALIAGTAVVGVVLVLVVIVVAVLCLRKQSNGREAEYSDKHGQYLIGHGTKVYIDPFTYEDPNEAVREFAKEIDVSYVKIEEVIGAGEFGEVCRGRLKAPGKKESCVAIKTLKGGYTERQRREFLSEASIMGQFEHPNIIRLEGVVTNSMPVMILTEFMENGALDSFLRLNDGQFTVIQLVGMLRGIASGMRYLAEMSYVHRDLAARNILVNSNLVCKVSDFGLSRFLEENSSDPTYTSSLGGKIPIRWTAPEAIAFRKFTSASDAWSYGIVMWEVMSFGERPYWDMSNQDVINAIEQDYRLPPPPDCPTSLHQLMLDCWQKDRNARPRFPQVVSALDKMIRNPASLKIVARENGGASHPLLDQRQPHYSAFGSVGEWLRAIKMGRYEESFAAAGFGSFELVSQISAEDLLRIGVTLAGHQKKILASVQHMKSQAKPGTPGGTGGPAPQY
# [17] = mouse liver microsomal stability; assay type: in vitro ADME
# [18] = molecular target: T15, EPHA5 (Homo sapiens, UniProt P54756); assay: single-point (1 uM) inhibition assay (ProQinase Kinase Profiler); assay type: biochemical
# T15 construct: purchased ProQinase
# T15 sequence (P54756 25-1037): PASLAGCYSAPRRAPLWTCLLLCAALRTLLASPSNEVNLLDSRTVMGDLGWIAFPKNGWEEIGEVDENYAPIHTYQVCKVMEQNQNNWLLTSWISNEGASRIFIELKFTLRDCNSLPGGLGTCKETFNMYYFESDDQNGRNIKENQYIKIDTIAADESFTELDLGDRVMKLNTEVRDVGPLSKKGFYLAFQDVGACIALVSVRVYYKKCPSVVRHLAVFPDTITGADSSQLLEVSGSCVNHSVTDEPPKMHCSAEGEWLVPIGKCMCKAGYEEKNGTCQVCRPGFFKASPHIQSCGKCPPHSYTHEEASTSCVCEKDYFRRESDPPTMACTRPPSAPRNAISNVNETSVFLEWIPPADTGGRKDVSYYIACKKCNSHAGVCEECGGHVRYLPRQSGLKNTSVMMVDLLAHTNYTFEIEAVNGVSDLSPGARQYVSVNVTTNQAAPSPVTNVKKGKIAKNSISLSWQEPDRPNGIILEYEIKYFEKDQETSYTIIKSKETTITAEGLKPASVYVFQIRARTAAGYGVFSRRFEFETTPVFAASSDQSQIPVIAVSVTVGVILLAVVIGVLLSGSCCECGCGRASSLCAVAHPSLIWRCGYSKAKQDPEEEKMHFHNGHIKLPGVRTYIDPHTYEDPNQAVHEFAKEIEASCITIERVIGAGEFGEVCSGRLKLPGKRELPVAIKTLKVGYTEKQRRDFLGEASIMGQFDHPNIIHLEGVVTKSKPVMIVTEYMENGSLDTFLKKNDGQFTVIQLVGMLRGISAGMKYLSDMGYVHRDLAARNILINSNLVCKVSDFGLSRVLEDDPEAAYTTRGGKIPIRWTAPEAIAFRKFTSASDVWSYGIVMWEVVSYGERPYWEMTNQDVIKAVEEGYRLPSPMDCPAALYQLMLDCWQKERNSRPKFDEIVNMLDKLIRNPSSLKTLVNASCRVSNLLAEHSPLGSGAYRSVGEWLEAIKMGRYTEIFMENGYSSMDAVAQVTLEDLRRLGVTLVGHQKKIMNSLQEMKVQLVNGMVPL
# [19] = molecular target: T16, YES (Homo sapiens, UniProt P07947); assay: as above; assay type: biochemical; details: 1 uM compound, read-out: % residual activity class (FIG. 3)
# T16 construct: purchased ProQinase
# [20] = molecular target: T17, TGFB-R1 (Homo sapiens, UniProt P36897); assay: as above; assay type: biochemical; details: 1 uM compound, read-out: % residual activity class (FIG. 3)
# T17 construct: purchased ProQinase
# [21] = molecular target: T18, EPHA8 (Homo sapiens, UniProt P29322); assay: as above; assay type: biochemical
# T18 construct: purchased ProQinase
# [22] = molecular target: T19, SRC (Homo sapiens, UniProt P12931); assay: biochemical; details: 1 uM compound, read-out: % residual activity class (FIG. 3)
# T19 construct: purchased ProQinase
# [23] = molecular target: WNK2 (Homo sapiens, UniProt Q9Y3S1); assay: biochemical; details: read-out: Residual activity (%) at 1 uM
# [24] = molecular target: T20, JAK1 aa583-1154 wt (Homo sapiens, UniProt P23458); assay: single-point (1 uM) inhibition assay (ProQinase Kinase Profiler); assay type: biochemical
# T20 construct: JAK1 aa583-1154 wt; purchased ProQinase, Freiburg, Germany (Kinase Profiler panel)
# T20 sequence (P23458 583-1154): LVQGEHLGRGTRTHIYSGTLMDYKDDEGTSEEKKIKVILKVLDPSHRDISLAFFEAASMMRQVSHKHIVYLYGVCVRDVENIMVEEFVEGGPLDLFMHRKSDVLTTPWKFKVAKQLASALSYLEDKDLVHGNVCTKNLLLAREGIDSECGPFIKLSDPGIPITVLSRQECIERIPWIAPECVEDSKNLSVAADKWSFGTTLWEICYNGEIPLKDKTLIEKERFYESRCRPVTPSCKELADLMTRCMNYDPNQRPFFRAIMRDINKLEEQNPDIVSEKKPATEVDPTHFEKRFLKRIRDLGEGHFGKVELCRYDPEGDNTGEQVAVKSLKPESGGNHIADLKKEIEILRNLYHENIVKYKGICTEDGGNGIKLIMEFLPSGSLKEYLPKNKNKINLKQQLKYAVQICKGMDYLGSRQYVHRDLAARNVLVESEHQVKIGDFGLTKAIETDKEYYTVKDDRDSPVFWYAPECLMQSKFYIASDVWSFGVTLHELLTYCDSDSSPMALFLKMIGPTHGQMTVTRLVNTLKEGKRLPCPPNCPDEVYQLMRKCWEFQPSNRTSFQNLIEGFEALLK
# [25] = tested on: K562 CML cells; details: cited from earlier work
# [26] = molecular target: EPHA6 (Homo sapiens, UniProt Q9UF33); assay: single-point (1 uM) inhibition assay (ProQinase Kinase Profiler); assay type: biochemical; details: 1 uM compound, read-out: % residual activity class (FIG. 3)
# [27] = molecular target: FGF-R2 (Homo sapiens, UniProt P21802); assay: as above; assay type: biochemical; details: read-out: % residual activity class (FIG. 3)
# [28] = tested on: KU812 tumours; details: large KU812 tumours (up to >1 g); 50 mg/kg/day for 5 days; cited from earlier work
# [29] = molecular target: hERG potassium channel (Homo sapiens, UniProt Q12809); details: page 31, NDA 21-986, cited from earlier work
# [30] = molecular target: p38-beta (Homo sapiens, UniProt Q15759); assay: biochemical; details: read-out: % residual activity class (FIG. 3)
# [31] = molecular target: ERBB2 (Homo sapiens, UniProt P04626); assay: single-point (1 uM) inhibition assay (ProQinase Kinase Profiler); assay type: biochemical; details: read-out: % residual activity class (FIG. 3)
# [32] = read-out: % residual activity class (FIG. 3)
# [33] = read-out: Residual activity (%) at 1 uM
smiles,measurement,setting,value
"Cc1nc(Nc2ncc(C(=O)Nc3c(Cl)ccnc3C)s2)cc(N2CCN(CCO)CC2)n1 [Compound B3, N-(4-chloro-2-methylpyridin-3-yl)-2-((6-(4-(2-hydroxyethyl)piperazin-1-yl)-2-methylpyrimidin-4-yl)amino)thiazole-5-carboxamide]",remaining activity at 1 µM,[1],25 to 50%
same,% residual activity class (FIG. 3),[2],*** (25% to <50% residual activity)
same,remaining activity at 1 µM,[3],< 25%
same,remaining activity at 1 µM,[4]; [32],< 25%
same,remaining activity at 1 µM,[4]; [33],3%
same,remaining activity at 1 µM,[5]; [32],< 25%
same,remaining activity at 1 µM,[5]; [33],0%
same,remaining activity at 1 µM,[6]; [32],25 to 50%
same,remaining activity at 1 µM,[6]; [33],~50%
same,remaining activity at 1 µM,[7]; [32],< 25%
same,remaining activity at 1 µM,[7]; [33],3%
same,remaining activity at 1 µM,[8],< 25%
same,Half-life,[9],0.967 h
same,remaining activity at 1 µM,[10]; [32],< 25%
same,remaining activity at 1 µM,[10]; [33],10%
same,remaining activity at 1 µM,[11],< 25%
same,remaining activity at 1 µM,[12],< 25%
same,remaining activity at 1 µM,[13],25 to 50%
same,remaining activity at 1 µM,[14],25 to 50%
same,remaining activity at 1 µM,[15],< 25%
same,remaining activity at 1 µM,"[16]; EPHB4, 1 uM compound, read-out: % residual activity class (FIG. 3)",< 25%
same,remaining activity at 1 µM,[16]; [33],1%
same,Half-life,[17],1.03 h
same,remaining activity at 1 µM,[18]; [32],< 25%
same,remaining activity at 1 µM,[18]; [33],1%
same,remaining activity at 1 µM,[19],< 25%
same,remaining activity at 1 µM,[20],25 to 50%
same,remaining activity at 1 µM,[21]; [32],< 25%
same,remaining activity at 1 µM,[21]; [33],3%
same,remaining activity at 1 µM,[22],< 25%
same,remaining activity at 1 µM,[23],100%
"Cc1nc(Nc2ncc(C(=O)Nc3c(C)cccc3Cl)s2)cc(N2CCN(CCO)CC2)n1 [Compound A8, N-(2-chloro-6-methylphenyl)-2-((6-(4-(2-hydroxyethyl)piperazin-1-yl)-2-methylpyrimidin-4-yl)amino)thiazole-5-carboxamide, reference compound]",remaining activity at 1 µM,[24]; [32],25 to 50%
same,remaining activity at 1 µM,[24]; [33],41%
same,survival,[25]; 10 mg/kg/day,increased survival
same,survival / intracranial tumour growth,"[25]; similar study, dasatinib 10 and 30 mg/kg/day, imatinib 200 mg/kg/day",increased survival
same,remaining activity at 1 µM,[26],25 to 50%
same,remaining activity at 1 µM,[27],25 to 50%
same,tumour response,[28],curative
same,inhibition of hERG currents,[29]; 3 uM,about 6%
same,inhibition of hERG currents,[29]; 10 uM,~36%
same,remaining activity at 1 µM,[30],< 25%
same,remaining activity at 1 µM,[31],25 to 50%
